According to PMC4052943 (BioMed Research International, 2014):
“And” between values parts separate entries of the source, which are not always exact repeats. Identical values can stand only once. Like-named read-outs stand apart in the source and are kept apart here.

Key:
[1] = test system: Salmonella typhimurium TA97a; settings: TA 97a, no S9
Experimental: (§1) In the preincubation experiment, test compounds and mutagen, each having a volume of 0.1 mL of varying concentrations, were preincubated at 37°C for 30 min and then 0.1 mL of 1 × 10^7 CFU/mL density of the bacterial culture was added, followed by the addition of 2.5 mL of top agar at 45°C (containing 0.5% NaCl and 0.6% agar) supplemented with 0.5 mM histidine-biotin. […] The combined solutions were vortexed and poured onto minimal glucose plates (40% glucose solution and Vogel Bonner medium). The plates were incubated at 37°C for 48 h and the numbers of histidine-independent revertants colonies were scored.
(§2) Survival of the bacteria was routinely monitored for each experiment. Parallel controls were run with compounds alone at all concentrations to test the possible toxicity. The concentrations of the test samples for investigating the antimutagenicity were 50, 100, 200, and 500 μM. […] All the test samples and mutagens were dissolved in DMSO (final conc., 0.01%). […] Plates were set up in triplicate for each concentration and the entire experiment was repeated three times. Inhibition of mutagenicity was expressed as percentage decrease of reverse mutation and calculated as (1) Percent inhibition=[(a−b)/(a−c)]×100, where a = number of histidine revertants induced by mutagen, b = number of histidine revertants induced by mutagen in the presence of test compound, and c = number of revertants induced in negative control.

[2] = test system: Salmonella typhimurium TA98; settings: TA 98, no S9
Experimental: as §1, §2

[3] = test system: Salmonella typhimurium TA100; settings: TA 100, no S9
Experimental: as §1, §2

[4] = test system: Salmonella typhimurium TA102; settings: TA 102, no S9
Experimental: as §1, §2

[5] = positive control MMS 1.5 μg (Table 8)

SMILES	Number of His+ revertants colonies/plate ([1]; positive control MMS 1.0 μg)	Number of His+ revertants colonies/plate [1, 5] [colonies/plate]	Number of His+ revertants colonies/plate ([2]; positive control MMS 1.0 μg) [colonies/plate]	Number of His+ revertants colonies/plate [2, 5] [colonies/plate]	Number of His+ revertants colonies/plate ([3]; positive control MMS 1.0 μg) [colonies/plate]	Number of His+ revertants colonies/plate [3, 5] [colonies/plate]	Number of His+ revertants colonies/plate ([4]; positive control MMS 1.0 μg) [colonies/plate]	Number of His+ revertants colonies/plate [4, 5] [colonies/plate]	Number of His+ revertants colonies/plate ([1]; positive control NaN3 1.5 μg) [colonies/plate]	Number of His+ revertants colonies/plate ([2]; positive control NaN3 1.5 μg) [colonies/plate]	Number of His+ revertants colonies/plate ([3]; positive control NaN3 1.5 μg) [colonies/plate]	Number of His+ revertants colonies/plate ([4]; positive control NaN3 1.5 μg)
COS(C)(=O)=O [MMS, Methyl methanesulfonate, reference compound]	449 colonies/plate and 449.7 ± 7.2 colonies/plate	449.7 ± 7.2	53.7 ± 1.5	53.7 ± 1.5	963.0 ± 11.4	963.0 ± 11.4	1237.0 ± 14.5	1237.0 ± 14.5				
[N-]=[N+]=[N-].[Na+] [NaN3, Sodium azide, reference compound]									256.0 ± 11.7	52.3 ± 1.8	361.3 ± 11.0	370.0 ± 9.0 colonies/plate and 355.0 ± 15.5 colonies/plate
